The test relates to BDF1 mice, P388 leukemia ip, median survival T/C. The experiment in a line: NCI In Vivo Anticancer Drug Screen. Data for tumor model P388 Leukemia (intraperitoneal) in B6D2F1 (BDF1) mice. As to conditions: endpoint: median survival time, higher = longer survival. An outline of the steps: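 Transplantable tumour in mice; compound vs vehicle dosing; survival scored; ratio of treated to control reported.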

[1] abbreviates: dose: 100.0 mg/kg/injection, schedule: Q04DX003 (ip), vehicle: saline with Tween-80.
The mark [2] stands for this setting: dose: 200.0 mg/kg/injection, schedule: Q04DX003 (ip), vehicle: saline with Tween-80.
Where [3] appears, read: dose: 400.0 mg/kg/injection, schedule: Q04DX003 (ip), vehicle: saline with Tween-80.
[4] abbreviates: dose: 100.0 mg/kg/injection, schedule: Q01DX009 (ip), vehicle: saline with Tween-80.
Setting [5] is: dose: 200.0 mg/kg/injection, schedule: Q01DX009 (ip), vehicle: saline with Tween-80.
Where [6] appears, read: dose: 400.0 mg/kg/injection, schedule: Q01DX009 (ip), vehicle: saline with Tween-80.
Setting [7] is: dose: 100.0 mg/kg/injection, schedule: Q04DX003 (ip), vehicle: Klucel (hydroxypropylcellulose) (HPC).
The mark [8] stands for this setting: dose: 200.0 mg/kg/injection, schedule: Q04DX003 (ip), vehicle: Klucel (hydroxypropylcellulose) (HPC).
Where [9] appears, read: dose: 50.0 mg/kg/injection, schedule: Q04DX003 (ip), vehicle: saline with Tween-80.
[10] abbreviates: dose: 200.0 mg/kg/injection, schedule: Q04DX003 (ip), vehicle: saline.
Setting [11] is: dose: 50.0 mg/kg/injection, schedule: Q01DX009 (ip), vehicle: saline with Tween-80.
Where [12] appears, read: dose: 25.0 mg/kg/injection, schedule: Q01DX009 (ip), vehicle: saline with Tween-80.

The text below walks through data of PubChem BioAssay AID328 (DTP/NCI, 2004).

Structures are written as SMILES. Where “and” joins values, the source holds several entries; their conditions need not be identical. Equal values may be shown once. Inconclusive results and toxic doses are left out.

Consider `CCC1c2ccc3cc(OC)ccc3c2CC1CC(=O)O` (stereo unspecified), for which the T/C is 100 % of control (dose: 100.0 mg/kg/injection, schedule: Q01DX001 (ip), vehicle: other); 110 % of control (dose: 200.0 mg/kg/injection, schedule: Q01DX001 (ip), vehicle: other); 105 % of control (dose: 400.0 mg/kg/injection, schedule: Q01DX001 (ip), vehicle: other).
For the compound `OCCN(CCO)c1cc(O)cc(O)c1`, the T/C runs as follows: under setting [1], 106 % of control; under setting [2], 120 % of control; under setting [3], 117 % of control.
As to `C[N+](C)(CC(=O)Nc1ccc(Cl)c(C(F)(F)F)c1)Cc1ccc(Cl)cc1`, the T/C (dose: 25.0 mg/kg/injection, schedule: Q04DX003 (ip), vehicle: saline sonified) is 110 % of control; the T/C (dose: 50.0 mg/kg/injection, schedule: Q04DX003 (ip), vehicle: saline sonified) was 110 % of control; the T/C (dose: 100.0 mg/kg/injection, schedule: Q04DX003 (ip), vehicle: saline sonified) is 90 % of control.
For the compound `CCCCCCCCCCCC[Si](CCCCCCCCCCCC)(c1ccccc1)c1ccccc1`, the T/C reads like this: (dose: 100.0 mg/kg/injection, schedule: Q01DX009 (ip), vehicle: other) 95 % of control; under setting [1], 100 % of control; (dose: 200.0 mg/kg/injection, schedule: Q01DX009 (ip), vehicle: other) 114 % of control; under setting [2], 100 % of control; (dose: 400.0 mg/kg/injection, schedule: Q01DX009 (ip), vehicle: other) 109 % of control; under setting [3], 100 % of control.
As for `CCC(CC)OCCN1CCN(CCCN2c3ccccc3Sc3ccc(C(F)(F)F)cc32)CC1`, the T/C reads like this: (dose: 5.0 mg/kg/injection, schedule: Q04DX003 (ip), vehicle: saline with Tween-80) 103 % of control and 104 % of control; (dose: 10.0 mg/kg/injection, schedule: Q04DX003 (ip), vehicle: saline with Tween-80) 108 % of control and 116 % of control; (dose: 20.0 mg/kg/injection, schedule: Q04DX003 (ip), vehicle: saline with Tween-80) 122 % of control.
As for `COC(=O)C/C(=C/C=C1/C(=O)ON=C1C)c1c(C)[nH]oc1=O`, the T/C was 90 % of control (dose: 100.0 mg/kg/injection, schedule: Q01DX009 (ip), vehicle: saline); 100 % of control (dose: 200.0 mg/kg/injection, schedule: Q01DX009 (ip), vehicle: saline); 95 % of control (dose: 400.0 mg/kg/injection, schedule: Q01DX009 (ip), vehicle: saline).
For `CN1C(=O)c2ccccc2CC12c1ccccc1C(=O)N2C` (stereo unspecified), the T/C is 86 % of control (dose: 50.0 mg/kg/injection, schedule: Q01DX005 (ip), vehicle: saline with Tween-80) and 86 % of control (dose: 200.0 mg/kg/injection, schedule: Q01DX005 (ip), vehicle: saline with Tween-80).
For the compound `CS(=O)(=O)OCCN(CCOS(C)(=O)=O)c1ccc(C=Nc2ccc3oc(=O)ccc3c2)cc1`, the T/C reads like this: under setting [1], 212 % of control; (dose: 132.0 mg/kg/injection, schedule: Q04DX003 (ip), vehicle: saline with Tween-80) 165 % of control; under setting [2], 243 % of control.
`CN(C)CCC(O)c1c[nH]c2ccccc12` (stereo unspecified): the T/C is 99 % of control under setting [4], 97 % of control under setting [5] and 90 % of control under setting [6].
Turning to `O=C1CSCC(=O)O1`, the T/C reads like this: (dose: 50.0 mg/kg/injection, schedule: Q01DX009 (ip), vehicle: Klucel (hydroxypropylcellulose) (HPC)) 105 % of control; (dose: 50.0 mg/kg/injection, schedule: Q04DX003 (ip), vehicle: Klucel (hydroxypropylcellulose) (HPC)) 95 % of control; under setting [7], 95 % of control; under setting [8], 109 % of control.
As for `O=[N+]([O-])c1cccc(/C=C/c2ccc(S(=O)(=O)F)cc2)c1`, the T/C reads like this: under setting [9], 95 % of control; under setting [1], 109 % of control; under setting [2], 95 % of control.
With `CC(=O)[C@H]1[C@H](C)C[C@H]2[C@@H]3CCC4=CC(=O)CC[C@]4(C)[C@@]3(F)[C@@H](O)C[C@@]21C`, the T/C runs as follows: (dose: 100.0 mg/kg/injection, schedule: Q01DX009 (ip), vehicle: Klucel (hydroxypropylcellulose) (HPC)) 105 % of control; (dose: 100.0 mg/kg/injection, schedule: Q04DX003 (ip), vehicle: alcohol) 120 % of control; (dose: 132.0 mg/kg/injection, schedule: Q04DX003 (ip), vehicle: saline) 115 % of control; (dose: 200.0 mg/kg/injection, schedule: Q01DX009 (ip), vehicle: Klucel (hydroxypropylcellulose) (HPC)) 120 % of control; under setting [10], 104 % of control and 120 % of control; (dose: 300.0 mg/kg/injection, schedule: Q04DX003 (ip), vehicle: saline) 110 % of control and 113 % of control. Moreover, the T/C is, setting by setting: (dose: 400.0 mg/kg/injection, schedule: Q01DX009 (ip), vehicle: Klucel (hydroxypropylcellulose) (HPC)) 120 % of control; (dose: 400.0 mg/kg/injection, schedule: Q04DX003 (ip), vehicle: alcohol) 105 % of control.
As for `CS(=O)(=O)OCC(OS(C)(=O)=O)C(COS(C)(=O)=O)OS(C)(=O)=O` (stereo unspecified), the T/C was 100 % of control under setting [11]; 95 % of control under setting [9]; 102 % of control under setting [4]; 91 % of control under setting [1]; 93 % of control under setting [5]; 95 % of control under setting [2]. Also, the T/C by setting is: under setting [6], 88 % of control; under setting [3], 91 % of control.
As to `Cc1cc(N)c(C)c([N+](=O)[O-])c1`, the T/C is, setting by setting: under setting [11], 100 % of control; under setting [4], 100 % of control; under setting [5], 95 % of control.
Consider `CCc1ccccc1OS(=O)(=O)c1ccccc1[N+](=O)[O-]`, for which the T/C under setting [7] was 100 % of control; the T/C under setting [8] was 100 % of control; the T/C (dose: 400.0 mg/kg/injection, schedule: Q04DX003 (ip), vehicle: Klucel (hydroxypropylcellulose) (HPC)) was 100 % of control.
In the case of `Cc1ccccc1NC=O`, the T/C is 103 % of control (dose: 90.0 mg/kg/injection, schedule: Q01DX009 (ip), vehicle: saline with Tween-80); 95 % of control under setting [1]; 107 % of control (dose: 135.0 mg/kg/injection, schedule: Q01DX009 (ip), vehicle: saline with Tween-80); 99 % of control under setting [5]; 104 % of control under setting [2]; 107 % of control (dose: 300.0 mg/kg/injection, schedule: Q01DX009 (ip), vehicle: saline with Tween-80). The T/C under setting [6] was 120 % of control and the T/C under setting [3] was 116 % of control.
Consider `Oc1ccc(CNCCNCCNCc2ccc(O)cc2)cc1`, for which the T/C is, setting by setting: (dose: 12.5 mg/kg/injection, schedule: Q04DX003 (ip), vehicle: saline) 100 % of control; (dose: 25.0 mg/kg/injection, schedule: Q04DX003 (ip), vehicle: saline) 107 % of control; (dose: 50.0 mg/kg/injection, schedule: Q04DX003 (ip), vehicle: saline) 109 % of control; (dose: 100.0 mg/kg/injection, schedule: Q04DX003 (ip), vehicle: saline) 100 % of control; under setting [10], 105 % of control.
For `COc1ccc(CNc2cc(C(O)CNC(C)(C)C)ccc2O)cc1` (stereo unspecified), the T/C runs as follows: (dose: 6.25 mg/kg/injection, schedule: Q01DX009 (ip), vehicle: saline with Tween-80) 105 % of control; (dose: 12.5 mg/kg/injection, schedule: Q01DX009 (ip), vehicle: saline with Tween-80) 102 % of control; under setting [12], 114 % of control.
On to `Clc1ccc(C2CC3CCCCN3O2)cc1` (stereo unspecified), for which the T/C by setting is: under setting [11], 90 % of control; under setting [4], 99 % of control; under setting [5], 90 % of control.
On to `CC1C(=O)CCC2(C)C1CCC1C3CCC(O)C3(C)CCC12` (stereo unspecified), for which the T/C under setting [1] is 95 % of control, the T/C under setting [2] was 100 % of control and the T/C under setting [3] was 91 % of control.
With `CCN(CCS)Cc1ccccc1`, the T/C reads like this: (dose: 25.0 mg/kg/injection, schedule: Q04DX003 (ip), vehicle: saline with Tween-80) 100 % of control; under setting [9], 104 % of control; under setting [1], 109 % of control.
Take `Cc1ccc(NC(=O)Nc2ccccc2F)cc1NC(=O)Nc1ccccc1F`: the T/C under setting [1] is 104 % of control, the T/C under setting [2] was 109 % of control and the T/C under setting [3] is 109 % of control.
Consider `CC(=O)OCC(CCn1ccc(=O)[nH]c1=O)COC(C)=O`, for which the T/C reads like this: under setting [4], 90 % of control; under setting [1], 98 % of control; under setting [5], 100 % of control; under setting [2], 98 % of control; under setting [6], 90 % of control; under setting [3], 100 % of control.
Take `CC(Nc1ccc(Br)cc1[N+](=O)[O-])C(=O)O` (stereo unspecified): the T/C was 122 % of control under setting [12], 94 % of control under setting [11], 112 % of control under setting [4] and 114 % of control under setting [5].
